According to patent US9376442B2, “Methylpyrrolopyrimidinecarboxamides” (Takeda GmbH, priority 2009, dated 2016):

Molecular target: T1, PDE5A1 (Homo sapiens, UniProt O76074)
T1 construct: from tissue; host or cells: human platelets from fresh donor blood (10,000 x g supernatant of sonicated lysate)
Assay: Inhibition of type 5 phosphodiesterase (PDE5) activity, modified SPA test with human platelet lysate
Assay type: biochemical
Details: 0.5 μM cGMP, read-out: PDE5A1 inhibitory values [measured as −log IC50 (mol/l)] (converted)
Description: Method for Measuring Inhibition of the Type 5 Phosphodiesterase (PDE5) Activity:
As a source for human PDE5, platelets are used. For that purpose, 150 ml fresh blood from human donors anticoagulated with citrate [final concentration 0.3% (w/v)] is centrifuged at 200 g for 10 min to obtain the so-called platelet-rich-plasma (PRP) as a supernatant. 1/10 volume of ACD solution (85 mM Na3-citrate, 111 mM D-glucose, 71 mM citric acid, pH 4.4) is added to 9/10 volume of PRP. After centrifugation (1,400 g, 10 min) the cell pellet is resuspended in 3 ml homogenization buffer (NaCl 140 mM, KCl 3.8 mM, EGTA (ethylene glycol tetraacetic acid) 1 mM, MgCl2 1 mM, Tris-HCl 20 mM, beta-mercaptoethanol 1 mM, pH 8.2) plus protease-inhibitor mix giving rise to the final concentrations of 0.5 mM Pefablock (Roche), 10 μM Leupeptin, 5 μM Trypsininhibitor, 2 mM Benzamidin and 10 μM Pepstatin A. The suspension is sonified and thereafter centrifuged for 15 min at 10,000 g. The resulting supernatant (platelet lysate) is used for enzymatic testings.
PDE5A1 activity is inhibited by the compounds of the present subject matter in a modified SPA (scintillation proximity assay) test, supplied by Amersham Biosciences (see procedural instructions “phosphodiesterase [3H]cAMP SPA enzyme assay, code TRKQ 7090”), carried out in 96-well microtitre plates (MTP's). The test volume is 100 μl and contains 20 mM Tris buffer (pH 7.4), 0.1 mg of BSA (bovine serum albumin)/ml, 5 mM Mg^2+, 1 μM motapizone, 10 nM PDE2 inhibitor 2-(3,4-dimethoxybenzyl)-7-[(1R,2R)-2-hydroxy-1-(2-phenylethyl)propyl]-5-methylimidazo[5,1-f][1,2,4]triazin-4(3H)-one, 0.5 μM cGMP (cyclic guanosine monophosphate) (including about 50,000 cpm of [3H]cGMP as a tracer), 1 μl of the respective compound dilution in dimethylsulfoxide (DMSO) and sufficient PDE5-containing platelet lysat (10,000×g supernatant, see above) to ensure that 10-20 wt % of the cGMP is converted under the said experimental conditions. […] After a preincubation of 5 min at 37° C., the reaction is started by adding the substrate (cGMP) and the assay is incubated for a further 15 min; after that, it is stopped by adding SPA beads (50 μl). In accordance with the manufacturer's instructions, the SPA beads had previously been resuspended in water, but are then diluted 1:3 (v/v) in water; the diluted solution also contains 3 mM […] (IBMX) to ensure a complete PDE activity stop. After the beads have been sedimented (>30 min), the MTP's are analyzed in commercially available luminescence detection devices. The corresponding IC50 values of the compounds for the inhibition of PDE activity are determined from the concentration-effect curves by means of non-linear regression.

SMILES	IC50
COCC(=O)N1C[C@@H](O)[C@H](NC(=O)c2c(C)[nH]c3c(-c4c(OCC5CC5)ccc5c4OCO5)ncnc23)C1 (relative stereo) [Example E18, 4-[5-(Cyclopropylmethoxy)-1,3-benzodioxol-4-yl]-N-[(3R*,4R*)-4-hydroxy-1-(methoxyacetyl)pyrrolidin-3-yl]-6-methyl-5H-pyrrolo[3,2-d]pyrimidine-7-carboxamide]	< 1 nM
CC(=O)N1C[C@@H](O)[C@H](NC(=O)c2c(C)[nH]c3c(-c4ccc(F)cc4OCC4CC4)ncnc23)C1 (relative stereo) [Example E31, N-[(3R*,4R*)-1-acetyl-4-hydroxypyrrolidin-3-yl]-4-[2-(cyclopropylmethoxy)-4-fluorophenyl]-6-methyl-5H-pyrrolo[3,2-d]pyrimidine-7-carboxamide]	1 to 10 nM
CCC(=O)N1C[C@@H](O)[C@H](NC(=O)c2c(C)[nH]c3c(-c4ccc(F)cc4OCC4CC4)ncnc23)C1 (relative stereo) [Example E32, 4-[2-(Cyclopropylmethoxy)-4-fluorophenyl]-N-[(3R*,4R*)-4-hydroxy-1-propanoylpyrrolidin-3-yl]-6-methyl-5H-pyrrolo[3,2-d]pyrimidine-7-carboxamide]	1 to 10 nM
COCC(=O)N1C[C@@H](O)[C@H](NC(=O)c2c(C)[nH]c3c(-c4ccc(F)cc4OCC4CC4)ncnc23)C1 (relative stereo) [Example E33, 4-[2-(Cyclopropylmethoxy)-4-fluorophenyl]-N-[(3R*,4R*)-4-hydroxy-1-(methoxyacetyl)pyrrolidin-3-yl]-6-methyl-5H-pyrrolo[3,2-d]pyrimidine-7-carboxamide]	1 to 10 nM
CC(=O)N1CC[C@H](NC(=O)c2c(C)[nH]c3c(-c4ccc(F)cc4OCC4CC4)ncnc23)[C@@H](O)C1 (relative stereo) [Example E34, N-[(3S*,4S*)-1-acetyl-3-hydroxypiperidin-4-yl]-4-[2-(cyclopropylmethoxy)-4-fluorophenyl]-6-methyl-5H-pyrrolo[3,2-d]pyrimidine-7-carboxamide]	< 1 nM
CCC(=O)N1CC[C@H](NC(=O)c2c(C)[nH]c3c(-c4ccc(F)cc4OCC4CC4)ncnc23)[C@@H](O)C1 (relative stereo) [Example E35, 4-[2-(Cyclopropylmethoxy)-4-fluorophenyl]-N-[(3S*,4S*)-3-hydroxy-1-propanoylpiperidin-4-yl]-6-methyl-5H-pyrrolo[3,2-d]pyrimidine-7-carboxamide]	< 1 nM
COCC(=O)N1CC[C@H](NC(=O)c2c(C)[nH]c3c(-c4ccc(F)cc4OCC4CC4)ncnc23)[C@@H](O)C1 (relative stereo) [Example E36, 4-[2-(Cyclopropylmethoxy)-4-fluorophenyl]-N-[(3S*,4S*)-3-hydroxy-1-(methoxyacetyl)piperidin-4-yl]-6-methyl-5H-pyrrolo[3,2-d]pyrimidine-7-carboxamide]	1 to 10 nM
CC(=O)N1CC[C@@H](NC(=O)c2c(C)[nH]c3c(-c4cc(F)ccc4OCC4CC4)ncnc23)[C@H](O)C1 (relative stereo) [Example E49, N-[(3R*,4R*)-1-acetyl-3-hydroxypiperidin-4-yl]-4-[2-(cyclopropylmethoxy)-5-fluorophenyl]-6-methyl-5H-pyrrolo[3,2-d]pyrimidine-7-carboxamide]	1 to 10 nM
CCC(=O)N1CC[C@@H](NC(=O)c2c(C)[nH]c3c(-c4cc(F)ccc4OCC4CC4)ncnc23)[C@H](O)C1 (relative stereo) [Example E50, 4-[2-(Cyclopropylmethoxy)-5-fluorophenyl]-N-[(3R*,4R*)-3-hydroxy-1-propanoylpiperidin-4-yl]-6-methyl-5H-pyrrolo[3,2-d]pyrimidine-7-carboxamide]	1 to 10 nM
COCC(=O)N1CC[C@@H](NC(=O)c2c(C)[nH]c3c(-c4cc(F)ccc4OCC4CC4)ncnc23)[C@H](O)C1 (relative stereo) [Example E51, 4-[2-(Cyclopropylmethoxy)-5-fluorophenyl]-N-[(3R*,4R*)-3-hydroxy-1-(methoxyacetyl)piperidin-4-yl]-6-methyl-5H-pyrrolo[3,2-d]pyrimidine-7-carboxamide]	1 to 10 nM
COc1ccc(-c2ncnc3c(C(=O)N[C@@H]4CN(C(C)=O)C[C@H]4O)c(C)[nH]c23)c(OCC2CC2)c1 (relative stereo) [Example E63, N-[(3R*,4R*)-1-acetyl-4-hydroxypyrrolidin-3-yl]-4-[2-(cyclopropylmethoxy)-4-methoxyphenyl]-6-methyl-5H-pyrrolo[3,2-d]pyrimidine-7-carboxamide]	< 1 nM
CCC(=O)N1C[C@@H](O)[C@H](NC(=O)c2c(C)[nH]c3c(-c4ccc(OC)cc4OCC4CC4)ncnc23)C1 (relative stereo) [Example E64, 4-[2-(Cyclopropylmethoxy)-4-methoxyphenyl]-N-[(3R*,4R*)-4-hydroxy-1-propionylpyrrolidin-3-yl]-6-methyl-5H-pyrrolo[3,2-d]pyrimidine-7-carboxamide]	< 1 nM
COCC(=O)N1C[C@@H](O)[C@H](NC(=O)c2c(C)[nH]c3c(-c4ccc(OC)cc4OCC4CC4)ncnc23)C1 (relative stereo) [Example E65, 4-[2-(Cyclopropylmethoxy)-4-methoxyphenyl]-N-[(3R*,4R*)-4-hydroxy-1-(methoxyacetyl)pyrrolidin-3-yl]-6-methyl-5H-pyrrolo[3,2-d]pyrimidine-7-carboxamide]	< 1 nM
COc1ccc(OCC2CC2)c(-c2ncnc3c(C(=O)N[C@@H]4CCN(C(C)=O)C[C@H]4O)c(C)[nH]c23)c1 (relative stereo) [Example E78, N-[(3R*,4R*)-1-acetyl-3-hydroxypiperidin-4-yl]-4-[2-(cyclopropylmethoxy)-5-methoxyphenyl]-6-methyl-5H-pyrrolo[3,2-d]pyrimidine-7-carboxamide]	< 1 nM
CCC(=O)N1CC[C@@H](NC(=O)c2c(C)[nH]c3c(-c4cc(OC)ccc4OCC4CC4)ncnc23)[C@H](O)C1 (relative stereo) [Example E79, 4-[2-(Cyclopropylmethoxy)-5-methoxyphenyl]-N-[(3R*,4R*)-3-hydroxy-1-propanoylpiperidin-4-yl]-6-methyl-5H-pyrrolo[3,2-d]pyrimidine-7-carboxamide]	< 1 nM
COCC(=O)N1CC[C@@H](NC(=O)c2c(C)[nH]c3c(-c4cc(OC)ccc4OCC4CC4)ncnc23)[C@H](O)C1 (relative stereo) [Example E80, 4-[2-(Cyclopropylmethoxy)-5-methoxyphenyl]-N-[(3R*,4R*)-3-hydroxy-1-(methoxyacetyl)piperidin-4-yl]-6-methyl-5H-pyrrolo[3,2-d]pyrimidine-7-carboxamide]	1 to 10 nM
COc1cc(-c2ncnc3c(C(=O)N[C@@H]4CCN(C(C)=O)C[C@H]4O)c(C)[nH]c23)c(OCC2CC2)cc1F (relative stereo) [Example E113, N-[(3R*,4R*)-1-Acetyl-3-hydroxypiperidin-4-yl]-4-[2-(cyclopropylmethoxy)-4-fluoro-5-methoxyphenyl]-6-methyl-5H-pyrrolo[3,2-d]pyrimidine-7-carboxamide]	< 1 nM
CCC(=O)N1CC[C@@H](NC(=O)c2c(C)[nH]c3c(-c4cc(OC)c(F)cc4OCC4CC4)ncnc23)[C@H](O)C1 (relative stereo) [Example E114, 4-[2-(Cyclopropylmethoxy)-4-fluoro-5-methoxyphenyl]-N-[(3R*,4R*)-3-hydroxy-1-propionylpiperidin-4-yl]-6-methyl-5H-pyrrolo[3,2-d]pyrimidine-7-carboxamide]	< 1 nM
